Measurements: the CheMixHub viscosity set

Experiment: xn = mol fraction of the nth substance listed

CCCCN + CCCCO
Details	viscosity [mPa·s]
293.15 K, 101 kPa, x1 = 0.1	2.51
293.15 K, 101 kPa, x1 = 0.3	1.85
293.15 K, 101 kPa, x1 = 0.5	1.25
293.15 K, 101 kPa, x1 = 0.7	0.95
293.15 K, 101 kPa, x1 = 0.9	0.68
298.15 K, 100 kPa, x2 = 0.099	0.553
298.15 K, 100 kPa, x2 = 0.195	0.663
298.15 K, 100 kPa, x2 = 0.294	0.794
298.15 K, 100 kPa, x2 = 0.401	0.951
298.15 K, 100 kPa, x2 = 0.493	1.101
298.15 K, 100 kPa, x2 = 0.6	1.312
298.15 K, 100 kPa, x2 = 0.695	1.531
298.15 K, 100 kPa, x2 = 0.8	1.818
298.15 K, 100 kPa, x2 = 0.893	2.131
298.15 K, 101.32 kPa, x2 = 0.0983	0.5497
298.15 K, 101.32 kPa, x2 = 0.1986	0.6488
298.15 K, 101.32 kPa, x2 = 0.2972	0.7685
298.15 K, 101.32 kPa, x2 = 0.4004	0.9222
298.15 K, 101.32 kPa, x2 = 0.4976	1.085
298.15 K, 101.32 kPa, x2 = 0.5988	1.291
298.15 K, 101.32 kPa, x2 = 0.7009	1.518
298.15 K, 101.32 kPa, x2 = 0.7974	1.782
298.15 K, 101.32 kPa, x2 = 0.899	2.123
303.15 K, 101 kPa, x1 = 0.01068	2.228
303.15 K, 101 kPa, x1 = 0.02055	2.205
303.15 K, 101 kPa, x1 = 0.0277	2.185
303.15 K, 101 kPa, x1 = 0.04127	2.155
303.15 K, 101 kPa, x1 = 0.05004	2.135
303.15 K, 101 kPa, x1 = 0.05896	2.116
303.15 K, 101 kPa, x1 = 0.07244	2.087
303.15 K, 101 kPa, x1 = 0.08331	2.059
303.15 K, 101 kPa, x1 = 0.09019	2.04
303.15 K, 101.33 kPa, x1 = 0.092	2.08
303.15 K, 101.33 kPa, x1 = 0.1008	1.909
303.15 K, 101.33 kPa, x1 = 0.1886	1.829
303.15 K, 101.33 kPa, x1 = 0.2007	1.627
303.15 K, 101.33 kPa, x1 = 0.2824	1.565
303.15 K, 101.33 kPa, x1 = 0.3004	1.395
303.15 K, 101.33 kPa, x1 = 0.3824	1.314
303.15 K, 101.33 kPa, x1 = 0.4	1.191
303.15 K, 101.33 kPa, x1 = 0.5009	1.019
303.15 K, 101.33 kPa, x1 = 0.5186	1.036
303.15 K, 101.33 kPa, x1 = 0.6001	0.869
303.15 K, 101.33 kPa, x1 = 0.6186	0.8627
303.15 K, 101.33 kPa, x1 = 0.6997	0.734
303.15 K, 101.33 kPa, x1 = 0.7158	0.7221
303.15 K, 101.33 kPa, x1 = 0.7999	0.625
303.15 K, 101.33 kPa, x1 = 0.8131	0.6087
303.15 K, 101.33 kPa, x1 = 0.9001	0.536
303.15 K, 101.33 kPa, x1 = 0.9011	0.5224
313.15 K, 101.3 kPa, x2 = 0.0992	0.4434
313.15 K, 101.3 kPa, x2 = 0.1967	0.516
313.15 K, 101.3 kPa, x2 = 0.2981	0.602
313.15 K, 101.3 kPa, x2 = 0.398	0.7038
313.15 K, 101.3 kPa, x2 = 0.4956	0.8181
313.15 K, 101.3 kPa, x2 = 0.5979	0.9549
313.15 K, 101.3 kPa, x2 = 0.6978	1.108
313.15 K, 101.3 kPa, x2 = 0.8009	1.289
313.15 K, 101.3 kPa, x2 = 0.9	1.503
313.15 K, 101.33 kPa, x1 = 0.092	1.662
313.15 K, 101.33 kPa, x1 = 0.1008	1.518
313.15 K, 101.33 kPa, x1 = 0.1886	1.476
313.15 K, 101.33 kPa, x1 = 0.2007	1.305
313.15 K, 101.33 kPa, x1 = 0.2824	1.286
313.15 K, 101.33 kPa, x1 = 0.3004	1.12
313.15 K, 101.33 kPa, x1 = 0.3824	1.086
313.15 K, 101.33 kPa, x1 = 0.4	0.976
313.15 K, 101.33 kPa, x1 = 0.5009	0.843
313.15 K, 101.33 kPa, x1 = 0.5186	0.856
313.15 K, 101.33 kPa, x1 = 0.6001	0.73
313.15 K, 101.33 kPa, x1 = 0.6186	0.7186
313.15 K, 101.33 kPa, x1 = 0.6997	0.622
313.15 K, 101.33 kPa, x1 = 0.7158	0.6085
313.15 K, 101.33 kPa, x1 = 0.7999	0.539
313.15 K, 101.33 kPa, x1 = 0.8131	0.5227
313.15 K, 101.33 kPa, x1 = 0.9001	0.47
313.15 K, 101.33 kPa, x1 = 0.9011	0.4542
323.15 K, 101.33 kPa, x1 = 0.1008	1.228
323.15 K, 101.33 kPa, x1 = 0.2007	1.065
323.15 K, 101.33 kPa, x1 = 0.3004	0.92
323.15 K, 101.33 kPa, x1 = 0.4	0.803
323.15 K, 101.33 kPa, x1 = 0.5009	0.7
323.15 K, 101.33 kPa, x1 = 0.6001	0.615
323.15 K, 101.33 kPa, x1 = 0.6997	0.534
323.15 K, 101.33 kPa, x1 = 0.7999	0.467
323.15 K, 101.33 kPa, x1 = 0.9001	0.407

O=C([O-])c1ccccc1O.[Na+] + O
viscosity [mPa·s]
Details	293.15 K	298.15 K	303.15 K	308.15 K	313.15 K	318.15 K
100 kPa, x1 = 5.685e-05	1.003	0.8913	0.7982	0.7198	0.6537	–
100 kPa, x1 = 0.0001129	1.006	0.8924	0.7983	0.7207	0.6543	–
100 kPa, x1 = 0.0004518	1.013	0.8989	0.8049	0.7259	0.659	–
100 kPa, x1 = 0.0009067	1.024	0.9079	0.8132	0.7334	0.6657	–
100 kPa, x1 = 0.001366	1.037	0.9164	0.8198	0.7394	0.6711	–
100 kPa, x1 = 0.001826	1.045	0.9259	0.8289	0.748	0.6781	–
100 kPa, x1 = 0.002292	1.056	0.9367	0.8375	0.7552	0.6844	–
100 kPa, x1 = 0.00276	1.067	0.9449	0.8458	0.7614	0.6908	–
100 kPa, x1 = 0.003231	1.076	0.9506	0.8501	0.7666	0.6959	–
101 kPa, x1 = 0.000472	1.014	0.9009	–	–	–	–
101 kPa, x1 = 0.000925	1.025	0.9102	–	–	–	–
101 kPa, x1 = 0.001	1.025	0.9152	0.8184	0.7362	0.6684	0.6111
101 kPa, x1 = 0.00135	1.036	0.9188	–	–	–	–
101 kPa, x1 = 0.0018	1.046	0.9279	–	–	–	–
101 kPa, x1 = 0.002	1.05	0.9359	0.8392	0.7538	0.6817	0.6235
101 kPa, x1 = 0.00224	1.057	0.937	–	–	–	–
101 kPa, x1 = 0.002288	–	0.946	0.842	0.757	0.684	–
101 kPa, x1 = 0.002647	1.067	0.9454	–	–	–	–
101 kPa, x1 = 0.003578	1.089	–	–	–	–	–
101 kPa, x1 = 0.004685	–	0.983	0.875	0.786	0.714	–
101 kPa, x1 = 0.005317	1.131	–	–	–	–	–
101 kPa, x1 = 0.007012	1.171	–	–	–	–	–
101 kPa, x1 = 0.009424	–	1.083	0.963	0.863	0.781	–
101 kPa, x1 = 0.01337	–	1.188	1.055	0.944	0.846	–
101 kPa, x1 = 0.01919	–	1.354	1.195	1.063	0.95	–
101 kPa, x1 = 0.02192	–	1.44	1.265	1.125	1.008	–
101 kPa, x1 = 0.02737	–	1.628	1.423	1.261	1.132	–
